Read-outs that look alike come from different tables or passages of the source.
How the values were obtained:
zebrafish embryos = format: in vivo; details: for Death number (72 h): n = 30; for observation of zebrafish embryo development: 48 h; for Body length (72 h) / Hatching number (72 h) / Heartbeat (72 h) / Unhatching number (72 h) / hatching rate: zebrafish, in vivo, 72 h
Description: By the same method described above, zebrafish fertilized eggs were cultured. 7 Groups were set for each test compound, including 5 experimental groups relating to the test compound at different concentrations (solutions containing the test compound at different concentrations were prepared by using zebrafish embryo culture medium, wherein the concentrations were 100 mg/L, 10 mg/L, 1 mg/L, 0.1 mg/L, 0.01 mg/L), 1 solvent control group (DMSO) and 1 blank control group. The fertilized eggs were placed and cultured in a 28.5° C. incubator, a certain humidity was ensured in the culture environment. Culture medium containing a test compound was prepared, and the culture medium was added to a 96-well plate in advance, and each fertilized egg (by reference to the experimental method in OECD No. 212 document, fertilized eggs, which developed normally within 24 h after fertilization, were selected and subjected to exposure. Transparent fish eggs visible to naked eye were normally fertilized, while white fish eggs were dead and discarded. After the selection, the normally fertilized eggs had begun to divide as observed under microscope) was then independently placed in a different well, and cultured in the culture medium containing a test compound at a different concentration. Embryo development status at different stages were observed and photographed with invert microscope, including:
I. Morphological observation: the developmental states of fertilized eggs (yolk being coagulated or not, eye spot, pericardial sac being edematous or not, bloodstream being existing or not, tail development status, and the like) were observed and photographed at 48 h, 72 h, and 96 h;
II. Hatching number and death number were counted at 72 h after fertilization, and hatching rate and mortality were calculated;
III. Body length of the hatched young fishes at 72 h was measured (measured after photographing with invert microscope); […]
V. Heartbeat of young fishes (times/min) was recorded at 72 h and 96 h after fertilization (Recording method: heartbeat of young fishes could be clearly observed under microscope, and the number of heartbeats was recorded for 30 s).

[1] = test system: headache caused by nitroglycerin; experiment: Nitroglycerin-induced headache rat model; format: in vivo, Wistar rats; details: rats, 10 mg/kg i.p. 1 h before nitroglycerin (FIG. 5)
Description: In the Experimental example, compounds to be evaluated or compounds to be tested or test compounds used are the Compounds 1-46 prepared in the Examples according to the invention. In the Experimental example, all the agents for injection, including compounds to be evaluated or compounds to be tested or test compounds, and positive control drug, were dissolved in a mixed solvent of PEG400:Tween 80:normal saline (at a volume ratio of 5:5:90), at a concentration of 5 mg/mL.
Nitroglycerin-induced headache rat model was a common model for studying inflammatory pain medically. The model was used in the invention to evaluate the therapeutic effects of the compounds on headache. The model can represent mixed pain including, but not only limited to: migraine, cluster headache, tension headache syndrome, prosopodynia, lumbodynia, shoulder pain, burning mouth syndrome, and complex regional pain syndrome.
Experimental Wistar rats with a body weight of about 250 g for each (purchased from Shanghai SLAC Laboratory Animal Co., Ltd) were in an experimental environment with free access to food and water for 1 week. The rats were fasted for 24 h before administration. The compound to be evaluated (10 mg/kg) was intraperitoneally injected to the rat at 1 h before the administration of nitroglycerin, wherein the positive control drug was indomethacin and the blank control was normal saline. Nitroglycerin (10 mg/kg, nitroglycerin dissolved in normal saline, at a concentration of 5%) was injected at epidermis of the rat neck, and the rats were then placed in the observation cage. A video camera was used to record the behavior of the rats in the following 60 min. Pain-related behavior was analyzed statistically based on the times that the rat scratched its head in said period.

[2] = Stability assay in rat plasma; format: in vitro ADME; details: 37° C.
Description: To each of several tubes sub-packaged with rat plasma, PBS solution was added in a volume equal to a quarter of plasma volume, and the resultant mixture was mixed well. […] At different time points (0, 10, 30, 60, 120, 240, 360, 720, 1440 min), 50 μL plasma sample was taken and added to 150 μL precooled methanol (containing the internal standard compound E8, with a structure of
[drawing 117] and a name of 1-(2-Biphenyl-4-yl)ethyl-carbonyl pyrrolidine, 1 nmol/sample), wherein three parallel samples were prepared for each time point. The samples were then vertically mixed well, and centrifuged at 4° C., 12000 g for 10 min. The supernatant was transferred to a sample vial. LC-MS/MS was used to measure the peak area at different time points, Analyst® version 1.4.1. software was used to analyze chromatographic peak, and the content of the target compound was calculated by virtue of the standard curve.

SMILES	Death number (72 h) (zebrafish embryos; 0.01 mg/L)	Death number (72 h) (zebrafish embryos; 0.1 mg/L)	Death number (72 h) (zebrafish embryos; 1 mg/L)	Death number (72 h) (zebrafish embryos; 10 mg/L)	observation of zebrafish embryo development (zebrafish embryos; 100 mg/L)	Death number (72 h) (zebrafish embryos; 100 mg/L)	Body length (72 h) (zebrafish embryos; 0.01 mg/L) [mm]	Hatching number (72 h) (zebrafish embryos; 0.01 mg/L)	Heartbeat (72 h) (zebrafish embryos; 0.01 mg/L) [per min]	Unhatching number (72 h) (zebrafish embryos; 0.01 mg/L)	Body length (72 h) (zebrafish embryos; 0.1 mg/L) [mm]	Hatching number (72 h) (zebrafish embryos; 0.1 mg/L)	Heartbeat (72 h) (zebrafish embryos; 0.1 mg/L) [per min]	Unhatching number (72 h) (zebrafish embryos; 0.1 mg/L)	Body length (72 h) (zebrafish embryos; 1 mg/L) [mm]	Hatching number (72 h) (zebrafish embryos; 1 mg/L)	Heartbeat (72 h) (zebrafish embryos; 1 mg/L) [per min]	Unhatching number (72 h) (zebrafish embryos; 1 mg/L)	Body length (72 h) (zebrafish embryos; 10 mg/L) [mm]	Hatching number (72 h) (zebrafish embryos; 10 mg/L)	also measured
O=C(CCCCCc1ccccc1)N1CCOC1=O [Compound 2, Phenylhexanoyl Oxazolidinone]	0	0	0	0	no zebrafish embryos died, but phenomena such as pericardial cyst, no heartbeat, no bloodstream, no tail development and the like occurred in embryos	30	3.90 ± 0.93	30	124 ± 1.67	0	4.08 ± 0.09	30	123 ± 2.45	0	3.92 ± 0.10	30	123 ± 3.03	0	3.78 ± 0.05	28	Heartbeat (72 h) (zebrafish embryos; 10 mg/L): 117 ± 3.90 per min; Unhatching number (72 h) (zebrafish embryos; 10 mg/L): 2; hatching rate (zebrafish embryos; 10 mg/L): 93.3%; Hatching number (72 h) (zebrafish embryos; 100 mg/L): 0; Unhatching number (72 h) (zebrafish embryos; 100 mg/L): 30; effect of inhibiting nitroglycerin-induced headache [1]: significant effects of inhibiting nitroglycerin-induced headache in rats; half-life at 2 μM [2]: 3.13 h
O=C(CCCCCc1cccc(Cl)c1)N1CCOC1=O [Compound 9, 3-Chlorophenylhexanoyl Oxazolidinone]	0	0	0	0	no zebrafish embryos died, but phenomena such as pericardial cyst, no heartbeat, no bloodstream, no tail development and the like occurred in embryos	30	4.01 ± 0.24	30	124 ± 0.27	0	4.03 ± 0.62	30	124 ± 1.17	0	4.01 ± 0.26	30	124 ± 1.08	0	3.82 ± 0.44	28	Heartbeat (72 h) (zebrafish embryos; 10 mg/L): 117 ± 2.24 per min; Unhatching number (72 h) (zebrafish embryos; 10 mg/L): 2; hatching rate (zebrafish embryos; 10 mg/L): 93.3%; Hatching number (72 h) (zebrafish embryos; 100 mg/L): 0; Unhatching number (72 h) (zebrafish embryos; 100 mg/L): 30; effect of inhibiting nitroglycerin-induced headache [1]: significant effects of inhibiting nitroglycerin-induced headache in rats; half-life at 2 μM [2]: 2.72 h
